Earlier results as cited in patent US20060165789A1, “Lercanidipine modified release compositions” (Forest Laboratories, Inc., priority 2004, published 2006).

Assays:
[1] = molecular target: cytochrome P450 3A4 isoenzyme (Homo sapiens, UniProt P08684); conditions: extensive presystemic first pass elimination in patients
Caco2 cell = Caco2 cell apparatus
[2] = pH 5
[3] = test system: dihyropyridine subunit of the L-type calcium channel
[4] = for time of maximum concentration (Tmax): form (I) and form (II) compared

cytochrome P450 3A4 isoenzyme, sequence (P08684 whole entry): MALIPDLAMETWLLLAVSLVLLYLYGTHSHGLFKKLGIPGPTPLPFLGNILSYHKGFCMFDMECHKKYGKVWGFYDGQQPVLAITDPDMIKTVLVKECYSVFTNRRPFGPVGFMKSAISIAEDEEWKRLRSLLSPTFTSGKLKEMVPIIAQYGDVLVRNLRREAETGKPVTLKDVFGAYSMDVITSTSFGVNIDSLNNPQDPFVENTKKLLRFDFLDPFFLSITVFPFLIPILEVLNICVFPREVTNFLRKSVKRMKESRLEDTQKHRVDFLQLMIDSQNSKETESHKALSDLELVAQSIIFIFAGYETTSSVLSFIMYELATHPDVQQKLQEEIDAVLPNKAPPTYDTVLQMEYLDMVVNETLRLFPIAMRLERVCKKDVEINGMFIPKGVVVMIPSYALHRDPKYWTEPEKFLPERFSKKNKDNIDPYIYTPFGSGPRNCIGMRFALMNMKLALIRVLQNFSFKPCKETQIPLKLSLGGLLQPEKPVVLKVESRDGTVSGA

Row | Compound | cytochrome P450 3A4 substrate [1] | Papp (Caco2 cell) [×10⁻⁶ cm/s] | solubility in acidic medium [2] | affinity for L-type calcium channel [3] | increase of amount of lercanidipine absorbed with food (in vivo) | time of peak plasma level following dosage (oral administration) [h] | time of maximum concentration (Tmax) [4] | bioavailability ([4]; form (II) compared to Form (I)) | systemic exposure (AUCo-t) ([4]; form (II) compared to Form (I))
1 | COC(=O)C1=C(C)NC(C)=C(C(=O)OC(C)(C)CN(C)CCC(c2ccccc2)c2ccccc2)C1c1cccc([N+](=O)[O-])c1.Cl (stereo not shown) [Lercanidipine, methyl 1,1,N-trimethyl-N-(3,3-diphenylpropyl)-2-aminoethyl 1,4-dihydro-2,6-dimethyl-4-(3-nitrophenyl)pyridine-3,5-dicarboxylate] | substrate for cytochrome P450 3A4 isoenzyme | 0.05 | less than 20 μg/ml | high affinity | between three and four times | 1 to 3 | – | – | –
2 | COC(=O)C1=C(C)NC(C)=C(C(=O)OC(C)(C)CN(C)CCC(c2ccccc2)c2ccccc2)C1c1cccc([N+](=O)[O-])c1 (stereo not shown) [form (I)] | – | – | – | – | – | – | shorter time to maximum concentration | – | –
3 | COC(=O)C1=C(C)NC(C)=C(C(=O)OC(C)(C)CN(C)CCC(c2ccccc2)c2ccccc2)C1c1cccc([N+](=O)[O-])c1 (stereo not shown) [form (II)] | – | – | – | – | – | – | delayed time of maximum concentration | higher bioavailability | slightly higher systemic exposure
